The values that follow come from patent US10039795B2, “Codon optimized recombinant phage and methods of using same” (priority 2014, dated 2018).

Read-outs that look alike come from different tables or passages of the source.

Holding throughout (format): cell-based
Experiment [1] deals with stressed bacterial cells (Listeria). As to conditions: for effect on infection rate or enzymatic activity: antifungal agent added to base medium. How it is done:
Media were screened for the ability to support high infection rate and high signal intensity following infection with phage encoding a luciferase marker. Bacterial cells were purposefully stressed by way of drying for 18 hours on a stainless steel table, followed by re-suspension in brain-heart infusion medium (BHI) for 30 minutes. The recovered cells were then infected with phage containing a luciferase marker for 6 hours followed by testing of the enzymatic activity using unpurified phage lysate and NanoLuc reagent.
BHI and TSB media were further titrated to assess whether there was an increase in RLU at different concentrations of base media.
Select components were added to the media in order to remedy known stressors to cells, and to reduce the possibility for other chemicals interfering with the test results. To this end, lithium chloride was added at defined concentrations to the selected 1×TSB base medium, followed by infecting the cells with a luciferase containing phage, and lastly by assaying the RLU detectable as a function of the percentage of lithium chloride added to the media. Lithium chloride was selected as an additive in order to overcome, prevent or limit growth of competing biologicals. […] (See FIG. 11).
Components selected to overcome cell starvation and oxidative stress, glucose and yeast extract, respectively, were titrated in 1×TSB, followed by infection of the bacteria with luciferase containing phage, and lastly by assaying the RLU detectable as a function of the percentage of either glucose or yeast extract.
Antifungal agents were also added to the base medium and tested in order to determine whether there is a decrease in RLU activity, either as a result of loss of enzyme activity or because of reduced infection ability. The anti-fungal agents tested included cycloheximide solution in DMSO.
The effect of divalent cations added to Formulation-1 was assessed. MgSO4 or CaCl2 was added to Formulation-1, followed by infection of bacteria with luciferase encoding phage, and assessment of resultant RLU.
The resultant formulation that incorporates all of the components of Formulation-1A, with the addition of HEPES, is herein referred to as Formulation-2 or as NIB-12.

The test system of the next experiment is Listeria.
For a further experiment, the system named is 1893 cell-type. In words: Sanitizer neutralization assay, phage infection step. As to conditions: added to NIB-14; 2 mM sodium metabisulfite or 0.05% sodium thiosulfate. How it is done: Following the 30 minute incubation period, the luciferase marker containing phage was added in BHI medium, and the samples were further allowed to incubate for an additional 3 hours at 30° C. The enzyme was then detected by the addition of the NanoGlo luciferin substrate and luminescence measurement. […] Another variant of this assay involved the direct incubation of the sterilization chemical with the NanoGlo luciferin substrate in the absence of either cells, phage or enzyme.

The test system of experiment [2] is bacteria exposed to luciferase encoding phage. In words: Phage infection and enzyme activity across media formulations (RLU). As to conditions: comparison across media formulations and additives. As for the experimental part:
A systematic comparison of RLU values as a function of additive component was performed on various media formulations. (See FIG. 15). The effects of different additives on both enzymatic activity, as well as infection ability, was measured and compared by way of assessing RLU across the different conditions.

Experiment [3] deals with bacterial cells (Listeria). The experiment is described as follows: RLU after phage infection in the presence of increasing quaternary ammonium salts. As to conditions: additive in Listeria Growth Broth. From the text: Bacterial cells were exposed to luciferase encoding phage in the following buffers, Listeria growth broth, Listeria growth broth with TWEEN®-80, or to Listeria growth broth with the addition of both TWEEN®-80 and lecithin. The RLU values are shown on the y-axis.
The addition of TWEEN®-80, either alone or in combination with lecithin, to the Formulation-2 (NIB-12) medium allowed for protection of the samples from interference by quaternary ammonium salts. (See FIG. 14). […] In this case, there was a sustained, detectable RLU in the presence of up to 62.5 ppm quaternary ammonium salts. The amount of resistance to quaternary ammonium salts was further increased through the addition of both lecithin and TWEEN®-80. With the addition of both reagents to Listeria Growth Broth, there was detectable RLU up to 125 ppm quaternary ammonium salts. Another preferred embodiment of the media contains 1.5% of TWEEN®-80 and 0.22% of lecithin.

Setting [4] is: component of aqueous solution (infection buffer).

Turning to `O=S(=O)(O)CCN1CCN(CCO)CC1` [HEPES, pH 7.4, HEPES], in experiment [1] (titrated into Formulation-1A, 3 hour and 6 hour time points), the “ideal HEPES concentration for high RLU activity” value is 20 mM. Further, in the experiment on Listeria (setting [4]), the “Effect on Listeria Detection” value was “positive”.

Acriflavin: the “Effect on Listeria Detection” value in the experiment on Listeria (setting [4]) is “negative”. Regarding `OC[C@H]1O[C@@](CO)(O[C@H]2O[C@H](CO)[C@@H](O)[C@H](O)[C@H]2O)[C@@H](O)[C@@H]1O` [Sucrose], the “Effect on Listeria Detection” value with Listeria (setting [4]) is reported as “neutral”.

In the case of `O=S(=O)([O-])[O-].[Fe+2]` [Ferrous sulphate], the “Effect on Listeria Detection” value in the experiment with Listeria (setting [4]) is given as “negative”.

On to `O=C([O-])CS.[Na+]` [Sodium thioglycollate], for which the “Effect on Listeria Detection” value in the experiment on Listeria (setting [4]) was “negative”.

For the molecule Ferric sulfate, in the experiment on Listeria (setting [4]), the “Effect on Listeria Detection” value is reported as “neutral”. `N[C@@H](CCC(=O)[O-])C(=O)[O-].[Na+].[Na+]` [Sodium glutamate]: in the experiment with Listeria (setting [4]), the “Effect on Listeria Detection” value is “neutral”. As for `CC(C)(O/N=C(\C(=O)N[C@@H]1C(=O)N2C(C(=O)[O-])=C(C[n+]3ccccc3)CS[C@H]12)c1csc(N)n1)C(=O)O` [Ceftazidime, reference compound], in the experiment on Listeria (setting [4]), the “Effect on Listeria Detection” value is “positive”. Take Ferric citrate: the “Effect on Listeria Detection” value in the experiment with Listeria (setting [4]) is “neutral”.

Consider `O=S([O-])S(=O)(=O)[O-].[Na+].[Na+]` [Sodium metabisulfite], for which the “Effect on Listeria Detection” value with Listeria (setting [4]) is recorded as “positive”. Also, in the experiment on 1893 cell-type, the “effect of oxygen scavenger on oxidizing effect of peroxide” value is on record as “reduced the oxidizing effect of peroxide”.

For `O=C(O)CCC(=O)C(=O)O` [Alpha-ketoglutarate], in the experiment on Listeria (setting [4]), the “Effect on Listeria Detection” value is on record as “negative”. As to `O=S([O-])([O-])=S.[Na+].[Na+]` [Sodium thiosulfate], the “Effect on Listeria Detection” value with Listeria is given as “negative”. For the same molecule, the “effect of oxygen scavenger on oxidizing effect of peroxide” value with 1893 cell-type is “reduced the oxidizing effect of peroxide”.

For Triton X-100, the “Effect on Listeria Detection” value with Listeria (setting [4]) is reported as “negative”. `C[S+](C)[O-]` [DMSO]: the “effect on infection rate or enzymatic activity” value in experiment [1] is listed as “Neither cycloheximide nor DMSO resulted in a decrease”. In the case of `O=S(=O)(O)CCCN1CCOCC1` [MOPS, pH 7.2, MOPS], the “Effect on Listeria Detection” value in the experiment on Listeria (setting [4]) is recorded as “positive”. On the same count and under the same terms, the result for `CCn1cc(C(=O)O)c(=O)c2ccc(C)nc21` [Nalidixic acid, reference compound] reads “positive”. Take `O=C([O-])CC(=O)[O-].[Na+].[Na+]` [Sodium malonate]: the “Effect on Listeria Detection” value with Listeria (setting [4]) was “negative”. Regarding `C[C@@H]1C[C@@H]([C@H](O)CC2CC(=O)NC(=O)C2)C(=O)[C@@H](C)C1` [Cycloheximide], the “effect on infection rate or enzymatic activity” value in experiment [1] was “Neither cycloheximide nor DMSO resulted in a decrease”. Besides, the “Effect on Listeria Detection” value with Listeria (setting [4]) was “neutral”.

Regarding `[Cl-].[Li+]` [Lithium chloride], the “additive concentration giving highest RLU / selected on RLU levels” value in experiment [1] (titrated in 1×TSB, 3 hour and 6 hour assay points) came out at 0.25%. Also, in the experiment on Listeria (setting [4]), the “Effect on Listeria Detection” value is given as “optimized”. Take `O=C([O-])CC(O)(CC(=O)[O-])C(=O)[O-].[Na+].[Na+].[Na+]` [Sodium citrate]: the “Effect on Listeria Detection” value with Listeria (setting [4]) is given as “negative”. For Polysorbate 20, the “Effect on Listeria Detection” value with Listeria (setting [4]) is “negative”. Turning to Polysorbate 80, in experiment [2], the “infection ability (RLU)” value is listed as “large impact in increasing infection ability”. In the experiment on Listeria (setting [4]), the “Effect on Listeria Detection” value is on record as “positive”. In addition, the “quaternary ammonium salts concentration up to which RLU is detectable” value in experiment [3] is reported as “up to 62.5 ppm”. As to `CC(=O)C(=O)[O-].[Na+]` [Sodium pyruvate], in experiment [2], the “infection ability (RLU)” value is “large impact in increasing infection ability”. In experiment [1] (HEPES titration experiment), the “RLU activity on addition of pyruvate” value was “further increased RLU activity”. Also, the “Effect on Listeria Detection” value with Listeria (setting [4]) is reported as “positive”. Regarding `OCC(O)CO` [Glycerol], the “Effect on Listeria Detection” value in the experiment with Listeria (setting [4]) is “neutral”. As to `C[N+](C)(C)CCOP(=O)(O)O.[Cl-]` [Phosphocholine chloride], the “Effect on Listeria Detection” value in the experiment with Listeria (setting [4]) is reported as “negative”. On to `O=S(=O)([O-])[O-].[Mg+2]` [Magnesium sulphate], for which the “infection ability (RLU)” value in experiment [2] was “large impact in increasing infection ability”. Moreover, the “RLU activity on addition of divalent cation” value in experiment [1] (added to Formulation-1, in comparison to CaCl2) is on record as “marked increase”. For the same molecule, the “Effect on Listeria Detection” value in the experiment on Listeria (setting [4]) is listed as “positive”. Consider `CO[C@@]1(NC(=O)C(C(=O)O)c2ccc(O)cc2)C(=O)N2C(C(=O)O)=C(CSc3nnnn3C)CO[C@@H]21` (stereo partly drawn) [Moxalactam, reference compound], for which the “Effect on Listeria Detection” value in the experiment with Listeria (setting [4]) is “neutral”.

Turning to O-octophosphorylcholine, the “Effect on Listeria Detection” value in the experiment with Listeria (setting [4]) was “negative”. Still for that read-out and setting: the result for `Cc1ncc(C[n+]2csc(CCO)c2C)c(N)n1` [Thiamine] reads “neutral”; that for Ferric ammonium citrate, “neutral”. Turning to `[Ca+2].[Cl-].[Cl-]` [Calcium chloride], the “Effect on Listeria Detection” value with Listeria is recorded as “neutral”.
